{
  "source": "patent US6358927B1",
  "about": "“Peptide fragments and analogs derived from PBAN 1-33 NH2 for controlling moths” (priority 1994, dated 2002)",
  "type_in_all_cases": "in vivo",
  "key": {"[1]": {"test_system": "Heliothis peltigera", "test": "Pheromonotropic bioassay: peptide injected into females, pheromone content (Z11-16:Ald) of the gland measured", "settings": "for effect of protease inhibitors on the biological activity of the peptide (in words): mixture of carboxypeptidase inhibitors (aprotinin and PMSF) and other protease inhibitors (TLCK, bacitracin) (FIG. 3); for biological activity (in words): 10 pmol in the presence of protease inhibitors for 2 hours", "experimental": "(§1) Structure activity studies were performed by an examination of the pheromonotropic activity of synthetic Hez-PAN (PBAN 1-33 NH2) and ten shorter fragments derived from its N- and C-terminal regions. Activity was tested on Heliothis peltigera using a bioassay as described by Gazit et al; (Insect Biochem., 20, 853-858, 1990). These structures are as follows:\nThe role of the N-terminus on the onset of the biological activity was examined using a series of peptides lacking 8, 12, 16, and 18 amino acids from their N-terminus [PBAN (9-33) NH2, PBAN (13-33) NH2, PBAN (17-33) NH2 and PBAN (19-33) NH2], respectively. […] Pheromone content was examined two hours post-injection. […] The N-terminal region may provide stability against proteolytic degradation or alternatively may play a secondary structural role.\nPheromonotropic activity was determined by injecting the peptides, dissolved in buffer phosphate to 3.5-4.5 days old females during daylight for two hours. Pheromone content is represented by the amount of the major pheromone component Z11-16:Ald."}, "[2]": {"test_system": "Heliothis peltigera", "test": "Inhibition of pheromonotropic activity evoked by PBAN (1-33) NH2 (co-injection of free acid fragments or antiserum)", "settings": "for inhibitory activity on pheromonotropic activity evoked by PBAN (1-33) NH2 (in words): injected together with 1 pmol PBAN (1-33) NH2", "experimental": "as §1, with “1990).” for “1990). These structures are as follows:”"}, "[3]": {"test_system": "Spodoptera littoralis larvae", "test": "Melanotropic bioassay: cuticular melanization in ligated larvae", "settings": "for Non pigmented area / Pigmented area: 10 pmol injected, ligated larvae, computerized optical density scanner; for cuticular melanization (in words): injection into ligated larvae, compared with ligation or buffer injection", "experimental": "Structure activity studies were also performed with respect to the melanotropic activity of synthetic Hez-PBAN. All the fragments that were tested for their pheromonotropic activity were also tested for their melanotropic activity. Studies were performed on Spodoptera littoralis larvae using a quantitative bioassay (Altstein et al., Peptides, submitted, 1994) which examines the ability of PBAN fragments to induce cuticular melanization in ligated larvae. Ligated larvae produce smaller amounts of melanin compared to untreated larvae (Table 4) as a result of a reduction in their endogenous PBAN. Under the tested conditions ligation caused a significant, but not complete, reduction in cuticular melanization. This incomplete reduction may result from the presence of PBAN in ganglia which were not affected by the ligation or from the presence of another hormone or neuropeptide that affects this process.\nPigmented and non-pigmented areas were determined by a computerized optical density scanner as described by Altstein et al., (Peptides, submitted, 1994)."}, "[4]": {"test_system": "Heliothis peltigera", "test": "Pheromonotropic bioassay: peptide injected into females, pheromone content (Z11-16:Ald) of the gland measured", "settings": "shortly after injection (15-30 min) (FIG. 5)"}, "[5]": {"settings": "Dose of 1 pmol, injected in phosphate buffer to 3.5-4.5 days old females during daylight for two hours"}, "[6]": {"settings": "Dose of 10 pmol, injected in phosphate buffer to 3.5-4.5 days old females during daylight for two hours"}, "[7]": {"settings": "free acid fragment at 10 pmol injected together with PBAN (1-33) NH2 at 1 pmol"}, "[8]": {"settings": "C-terminally free acid peptides, 10 pmol, in the presence of protease inhibitors for 2 hours"}, "[9]": {"settings": "1 pmol, pheromone content two hours post-injection"}, "[10]": {"settings": "concentrations ranging from 1-100 pmol, tested 2 hours post injection (FIG. 4)"}},
  "data": [
    {"substance": "H-Gln-Asp-Pro-Glu^20-Gln-Ile-Asp-Ser-Arg-Thr-Lys-Tyr-Phe-Ser^30-Pro-Arg-Leu^33-NH2 [PBAN (17-33) NH2]", "values": [
      {"measurement": "Pheromone content Z11-16:Ald ng/gland ± SE", "setting": "[1]; [5]", "result": "24.1 ± 5.7", "unit": "c ng/gland"},
      {"measurement": "Pheromone content Z11-16:Ald ng/gland ± SE", "setting": "[1]; [6]", "result": "196.9 ± 40.7", "unit": "a′ ng/gland"}
    ]},
    {"substance": "H-Glu-Met-Tyr-Arg-Gln-Asp-Pro-Glu^20-Gln-Ile-Asp-Ser-Arg-Thr-Lys-Tyr-Phe-Ser^30-Pro-Arg-Leu^33-NH2 [PBAN (13-33) NH2]", "values": [
      {"measurement": "Pheromone content Z11-16:Ald ng/gland ± SE", "setting": "[1]; [5]", "result": "4.1 ± 3.0", "unit": "d ng/gland"},
      {"measurement": "Pheromone content Z11-16:Ald ng/gland ± SE", "setting": "[1]; [6]", "result": "180.2 ± 47.3", "unit": "a′ ng/gland"}
    ]},
    {"substance": "H-Leu^1-Ser-Asp-Asp-Met-Pro-Ala-Thr-Pro-Ala^10-Asp-Gln-Glu-Met-Tyr-Arg-Gln-Asp-Pro-Glu^20-Gln-Ile-Asp-Ser-Arg-Thr-Lys-Tyr-Phe-Ser^30-Pro-Arg-Leu^33-COOH [PBAN (1-33) COOH]", "values": [
      {"measurement": "Inhibition (% of cont)", "setting": "[2]; [7]", "result": 0, "unit": "%"},
      {"measurement": "Pheromone content Z11-16:Ald ng/gland ± SE", "setting": "[2]; [7]", "result": "170.2 ± 24.2", "unit": "ng/gland"},
      {"measurement": "inhibitory activity on pheromonotropic activity evoked by PBAN (1-33) NH2 (in words)", "setting": "[2]", "result": "did not show any inhibitory activity"},
      {"measurement": "pheromonotropic activity (in words)", "setting": "[1]; 10 pmol", "result": "completely inactive"},
      {"measurement": "Pheromone content Z11-16:Ald ng/gland ± SE", "setting": "[1]; [8]", "result": "1.4 ± 0.76", "unit": "ng/gland"},
      {"measurement": "effect of protease inhibitors on the biological activity of the peptide (in words)", "setting": "[1]", "result": "did not enhance"}
    ]},
    {"substance": "H-Leu^1-Ser-Asp-Asp-Met-Pro-Ala-Thr-Pro-Ala^10-Asp-Gln-Glu-Met-Tyr-Arg-Gln-Asp-Pro-Glu^20-Gln-Ile-Asp-Ser-Arg-Thr-Lys-Tyr-Phe-Ser^30-Pro-Arg-Leu^33-NH2 [PBAN (1-33) NH2, reference compound]", "values": [
      {"measurement": "Pheromone content Z11-16:Ald ng/gland ± SE", "setting": "[2]; PBAN (1-33) NH2 alone at 1 pmol (control of Table 3)", "result": "165.0 ± 21.0", "unit": "ng/gland"},
      {"measurement": "Pheromone content Z11-16:Ald ng/gland ± SE", "setting": "[1]; [5]", "result": "200.7 ± 40.7", "unit": "a ng/gland"},
      {"measurement": "Pheromone content Z11-16:Ald ng/gland ± SE", "setting": "[1]; [6]", "result": "225.2 ± 51.4", "unit": "a′ ng/gland"},
      {"measurement": "effect of protease inhibitors on the biological activity of the peptide (in words)", "setting": "[1]", "result": "significant stimulation in its activity"},
      {"measurement": "Non pigmented area", "setting": "[3]", "result": 4, "unit": "%"},
      {"measurement": "Pigmented area", "setting": "[3]", "result": 96, "unit": "%"},
      {"measurement": "cuticular melanization (in words)", "setting": "[3]", "result": "significant increase"}
    ]},
    {"substance": "H-Pro-Ala^10-Asp-Gln-Glu-Met-Tyr-Arg-Gln-Asp-Pro-Glu^20-Gln-Ile-Asp-Ser-Arg-Thr-Lys-Tyr-Phe-Ser^30-Pro-Arg-Leu^23-COOH (H-PADQEMYRQDPEQIDSRTKYFSPRL-OH) [PBAN (9-33) COOH]", "values": [
      {"measurement": "Inhibition (% of cont)", "setting": "[2]; [7]", "result": 7, "unit": "%"},
      {"measurement": "Pheromone content Z11-16:Ald ng/gland ± SE", "setting": "[2]; [7]", "result": "154.7 ± 22.2", "unit": "ng/gland"},
      {"measurement": "inhibitory activity on pheromonotropic activity evoked by PBAN (1-33) NH2 (in words)", "setting": "[2]", "result": "did not show any inhibitory activity"},
      {"measurement": "biological activity (in words)", "setting": "[1]", "result": "lack any biological activity"},
      {"measurement": "Pheromone content Z11-16:Ald ng/gland ± SE", "setting": "[1]; [8]", "result": "<1", "unit": "ng/gland"}
    ]},
    {"substance": "H-Pro-Ala^10-Asp-Gln-Glu-Met-Tyr-Arg-Gln-Asp-Pro-Glu^20-Gln-Ile-Asp-Ser-Arg-Thr-Lys-Tyr-Phe-Ser^30-Pro-Arg-Leu^33-NH2 [PBAN (9-33) NH2]", "values": [
      {"measurement": "pheromonotropic activity (in words)", "setting": "[1]; [9]", "result": "active as PBAN (1-33) NH2"},
      {"measurement": "Pheromone content Z11-16:Ald ng/gland ± SE", "setting": "[1]; [5]", "result": "143.7 ± 29.6", "unit": "a ng/gland"},
      {"measurement": "Pheromone content Z11-16:Ald ng/gland ± SE", "setting": "[1]; [6]", "result": "168.0 ± 9.2", "unit": "a′ ng/gland"}
    ]},
    {"substance": "H-Pro-Ala^10-Asp-Gln-Glu-Met-Tyr-Arg-Gln-Asp^18-COOH (H-PADQEMYRQD-OH) [PBAN (9-18) COOH]", "values": [
      {"measurement": "inhibition of the pheromonotropic activity", "setting": "[2]; 100 pmol of fragment together with 0.5 pmol PBAN (1-33) NH2 (FIG. 6)", "result": 40, "unit": "%"},
      {"measurement": "Inhibition (% of cont)", "setting": "[2]; [7]", "result": 35, "unit": "%"},
      {"measurement": "Pheromone content Z11-16:Ald ng/gland ± SE", "setting": "[2]; [7]", "result": "108.1 ± 18.0", "unit": "ng/gland"},
      {"measurement": "biological activity (in words)", "setting": "[1]", "result": "lack any biological activity"},
      {"measurement": "Pheromone content Z11-16:Ald ng/gland ± SE", "setting": "[1]; [8]", "result": "<1", "unit": "ng/gland"},
      {"measurement": "Non pigmented area", "setting": "[3]", "result": 25, "unit": "%"},
      {"measurement": "Pigmented area", "setting": "[3]", "result": 75, "unit": "%"},
      {"measurement": "cuticular melanization (in words)", "setting": "[3]", "result": "significant decrease"}
    ]},
    {"substance": "H-Pro-Glu^20-Gln-Ile-Asp-Ser-Arg-Thr-Lys-Tyr-Phe-Ser^30-Pro-Arg-Leu^33-COOH [PBAN (19-33) COOH]", "values": [
      {"measurement": "Inhibition (% of cont)", "setting": "[2]; [7]", "result": 27, "unit": "%"},
      {"measurement": "Pheromone content Z11-16:Ald ng/gland ± SE", "setting": "[2]; [7]", "result": "120.4 ± 29.2", "unit": "ng/gland"},
      {"measurement": "inhibitory activity on pheromonotropic activity evoked by PBAN (1-33) NH2 (in words)", "setting": "[2]", "result": "did not show any inhibitory activity"},
      {"measurement": "biological activity (in words)", "setting": "[1]", "result": "lack any biological activity"},
      {"measurement": "Pheromone content Z11-16:Ald ng/gland ± SE", "setting": "[1]; [8]", "result": "<1", "unit": "ng/gland"}
    ]},
    {"substance": "H-Pro-Glu^20-Gln-Ile-Asp-Ser-Arg-Thr-Lys-Tyr-Phe-Ser^30-Pro-Arg-Leu^33-NH2 [PBAN (19-33) NH2]", "values": [
      {"measurement": "pheromonotropic activity (in words)", "setting": "[1]; [9]", "result": "low activity"},
      {"measurement": "Pheromone content Z11-16:Ald ng/gland ± SE", "setting": "[1]; [5]", "result": "52.7 ± 21.0", "unit": "b ng/gland"},
      {"measurement": "Pheromone content Z11-16:Ald ng/gland ± SE", "setting": "[1]; [6]", "result": "133.8 ± 15.7", "unit": "b′ ng/gland"}
    ]},
    {"substance": "H-Thr-Lys-Tyr-Phe-Ser^30-Pro-Arg-Leu^33-NH2 (H-TKYFSPRL-NH2) [PBAN (26-33) NH2]", "values": [
      {"measurement": "Pheromone content Z11-16:Ald ng/gland ± SE", "setting": "[1]; [5]", "result": "8.9 ± 3.5", "unit": "d ng/gland"},
      {"measurement": "Pheromone content Z11-16:Ald ng/gland ± SE", "setting": "[1]; [6]", "result": "12.2 ± 3.1", "unit": "c′ ng/gland"},
      {"measurement": "pheromonotropic activity (in words)", "setting": "[1]; [10]", "result": "active only at high doses (100 pmol)"}
    ]},
    {"substance": "H-Tyr-Phe-Ser^30-Pro-Arg-Leu^33-NH2 (H-YFSPRL-NH2) [PBAN (28-33) NH2]", "values": [
      {"measurement": "Pheromone content Z11-16:Ald ng/gland ± SE", "setting": "[1]; [5]", "result": "5.6 ± 1.7", "unit": "d ng/gland"},
      {"measurement": "Pheromone content Z11-16:Ald ng/gland ± SE", "setting": "[1]; [6]", "result": "12.7 ± 4.9", "unit": "c′ ng/gland"},
      {"measurement": "pheromonotropic activity (in words)", "setting": "[1]; [10]", "result": "active only at high doses (100 pmol)"},
      {"measurement": "pheromonotropic activity (in words)", "setting": "[4]", "result": "does not differ significantly from that of the full length PBAN (1-33) NH2"}
    ]}
  ]
}
